Measured values from US10842779B2, “Heterocyclic compounds and their use in preventing or treating bacterial infections” (priority 2015, dated 2020).
Where two headings read alike, the source gives them in different places.

Assays:
Test in all cases: MIC of compounds alone, broth microdilution
Assay type in all cases: cell-based
[1] = test system: E. coli; details: Escherichia coli
Protocol: (§1) Method 2: MIC of Compounds and Synergy with Ceftazidime Against Bacterial Isolates (Table 2 and 3)
(§2) Compounds of the present invention were assessed against genotyped bacterial strains alone or in combination with the β-lactam ceftazidime. In the assays, MICs of said compounds, or of ceftazidime at fixed concentrations of said compounds were determined by the broth microdilution method according to the Clinical Laboratory Standards Institute (CLSI—M7-A7). Briefly, compounds alone according to the invention were prepared in DMSO and spotted (2 μL each) on sterile polystyrene plates (Corning, 3788). Compounds and ceftazidime dilutions were prepared in DMSO and spotted (1 μL each) on sterile polystyrene plates (Corning, 3788). Log phase bacterial suspensions were adjusted to a final density of 5×10^5 cfu/mL in cation-adjusted Mueller-Hinton broth (Beckton-Dickinson) and added to each well (98 μL). Microplates were incubated for 16-20 h at 35° C. in ambient air. The MIC of the compounds was defined as the lowest concentration of said compounds that prevented bacterial growth as read by visual inspection. The MIC of ceftazidime at each compound concentration was defined as the lowest concentration of ceftazidime that prevented bacterial growth as read by visual inspection.

[2] = test system: K. oxytoca; details: Klebsiella oxytoca; alone; KOX UFR21; beta-lactamases TEM-1, CTX-M-15 OXA-48; read-out: MIC
Protocol: as §1, §2

[3] = test system: K. pneumoniae; details: Klebsiella pneumoniae, read-out: MIC
Protocol: as §1, §2

[4] = test system: M. morganii; details: Morganella morganii, MMO 200321, beta-lactamases TEM-1, CTX-M-15 OXA-1
Protocol: as §1, §2

[5] = test system: P. aeruginosa; details: Pseudomonas aeruginosa, alone, read-out: MIC
Protocol: as §1, §2

[6] = test system: P. mirabilis; details: Proteus mirabilis, PMI UFR82, beta-lactamases CMY-2
Protocol: as §1, §2

[7] = test system: S. marcescens; details: Serratia marcescens, SMA UFR30, beta-lactamases OXA-405
Protocol: as §1, §2

O=C(O)C(F)(F)F.O=C1N2C[C@H](c3scnc3[C@H]2c2ncc[nH]2)N1OS(=O)(=O)[O-].[Na+] (relative stereo) [Example 1, Sodium and 2,2,2-trifluoroacetate [trans-7-(1H-imidazol-3-ium-2-yl)-9-oxo-3-thia-5,8,10-triaza-tricyclo[6.2.1.0^2,6]undeca-2(6),4-dien-10-yl]sulfate]
MIC ([1]; ECO UFR39, beta-lactamases CTX-M-15 NDM-1, read-out: MIC): 2 µg/mL | MIC ([1]; ECO UFR41, beta-lactamases TEM-1, CTX-M-15 CMY-2 OXA-1 NDM-4, read-out: MIC): 16 µg/mL | MIC ([1]; ECO UFR45, beta-lactamases TEM-1 CMY-4 OXA-1 OXA-48 VIM-1, read-out: MIC): 0.5 µg/mL | MIC ([1]; ECO UFR52, beta-lactamases TEM-1, SHV-12 IMP-8, read-out: MIC): 1 µg/mL | MIC ([1]; ECO UFR61O, beta-lactamases TEM-1 KPC-2, read-out: MIC): 1 µg/mL | MIC ([1]; ECO UFR62, beta-lactamases TEM-1, CTX-M-9 KPC-2, read-out: MIC): 0.5 µg/mL | MIC ([1]; ECO UFR74, beta-lactamases SHV-1 DHA-1, read-out: MIC): 2 µg/mL | MIC [2]: 4 µg/mL | MIC ([3]; BAA1898, alone, KPN BAA-1898, beta-lactamases TEM-1, SHV-11, SHV-12 KPC-2): 4 µg/mL | MIC ([3]; alone, KPN 6299, beta-lactamases TEM-1, SHV-11 OXA-163): 16 µg/mL | MIC ([3]; alone, KPN 110376, beta-lactamases TEM-1, SHV-1, CTX-M-15 OXA-1 OXA-48): 2 µg/mL | MIC ([3]; alone, KPN 131119, beta-lactamases TEM-1, SHV-11, CTX-M-15 OXA-1 OXA-48): 4 µg/mL | MIC ([3]; alone, KPN 160143, beta-lactamases TEM-1, SHV-1, CTX-M-15 KPC-2 OXA-1): 4 µg/mL | MIC ([3]; alone, KPN 190128, beta-lactamases TEM-1, SHV-32, CTX-M-15 OXA-1): 4 µg/mL | MIC ([3]; alone, KPN 190270, beta-lactamases TEM-1, SHV-76, CTX-M-15 OXA-1): 8 µg/mL | MIC ([3]; alone, KPN 190425, beta-lactamases TEM-1, SHV-1, CTX-M-15 OXA-1): 4 µg/mL | MIC ([3]; alone, KPN 190551, beta-lactamases TEM-1, SHV-1, CTX-M-15 OXA-1): 2 µg/mL | MIC ([3]; alone, KPN 200047, beta-lactamases TEM-1, SHV-32, CTX-M-15 OXA-1): 2 µg/mL | MIC ([3]; alone, KPN 200327, beta-lactamases TEM-1, SHV-1, CTX-M-15 OXA-1): 2 µg/mL | MIC ([3]; alone, KPN 260251, beta-lactamases TEM-1, SHV-11, SHV-12, CTX-M-15 KPC-2): 4 µg/mL | MIC ([3]; alone, KPN 260252, beta-lactamases TEM-1, SHV-11 KPC-3): > 32 µg/mL | MIC ([3]; alone, KPN 260376, beta-lactamases SHV-1, SHV-49 OXA-1): 2 µg/mL | MIC ([3]; alone, KPN 270077, beta-lactamases TEM-1, SHV-1, CTX-M-15): 8 µg/mL | MIC ([3]; alone, KPN 700603, beta-lactamases SHV-18 OXA-2): 4 µg/mL | MIC ([3]; alone, KPN 6122012, beta-lactamases SHV-1 NDM-1): 8 µg/mL | MIC ([3]; alone, KPN ARA, beta-lactamases TEM-1, SHV-11, CTX-M-15 OXA-1 OXA-48): 4 µg/mL | MIC ([3]; alone, KPN LIB, beta-lactamases SHV-11 OXA-48): 2 µg/mL | MIC ([3]; alone, KPN UFR22_O, beta-lactamases TEM-1, SHV-1 OXA-48): 4 µg/mL | MIC ([3]; alone, KPN UFR24, beta-lactamases TEM-1, SHV-2, SHV-11 OXA-1 OXA-48 OXA-47): 8 µg/mL | MIC ([3]; alone, KPN UFR25, beta-lactamases TEM-1, SHV-11, CTX-M-15 OXA-162): 2 µg/mL | MIC ([3]; alone, KPN UFR27, beta-lactamases TEM-1, SHV-28, CTX-M-15 OXA-204): 4 µg/mL | MIC ([3]; alone, KPN UFR28, beta-lactamases TEM-1, SHV-1, CTX-M-15 OXA-1 OXA-232): 2 µg/mL | MIC ([3]; alone, KPN UFR42, beta-lactamases SHV-2, CTX-M-15 OXA-1 OXA-181 NDM-1): 4 µg/mL | MIC ([3]; alone, KPN UFR43, beta-lactamases SHV-11, CTX-M-15 CMY-2 OXA-1 NDM-1): 16 µg/mL | MIC ([3]; alone, KPN UFR53, beta-lactamases TEM-1 IMP-1): 4 µg/mL | MIC ([3]; alone, KPN UFR65, beta-lactamases TEM-1, SHV-11 KPC-2): 16 µg/mL | MIC ([3]; alone, KPN UFR66, beta-lactamases TEM-1, SHV-11, CTX-M-15 KPC-2): 8 µg/mL | MIC ([3]; alone, KPN UFR68, beta-lactamases TEM-1, SHV-11, CTX-M-15 KPC-3): 8 µg/mL | MIC ([3]; alone, KPN UFR77, beta-lactamases CMY-2): 4 µg/mL | MIC ([3]; alone, KPN UFR79, beta-lactamases DHA-1 OXA-1): 4 µg/mL | MIC ([3]; alone, KPN UFR80, beta-lactamases SHV-11 DHA-1 OXA-1): 1 µg/mL | MIC ([3]; alone, KPN UFR81, beta-lactamases TEM-1, SHV-1 DHA-1 OXA-48): 32 µg/mL | MIC [4]: 32 µg/mL | MIC ([5]; PAE CIP107051, beta-lactamases TEM-24): > 32 µg/mL | MIC ([5]; PAE MUS, beta-lactamases OXA-20 OXA-18): > 32 µg/mL | MIC [6]: 32 µg/mL | MIC [7]: 16 µg/mL
